Molecules are shown by their SMILES.

Assay [1] deals with MDA-MB-453. Nature of the assay: drug sensitivity score (DSS), in combination with BLU9931 (DSS (weighted AUC score)); higher = more sensitive (stronger viability decrease); extreme values may be limits of the assay. The conditions noted are these: BLU9931 100 nM; 72 h. The gist of the method:
(§1)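 Cells of the MDA-MB-453 line (2000 per well) were added in medium, with or without 100 nM final FGFR4 inhibitor, to 384-well plates predispensed with FIMM Oncology set compounds at five 10-fold dilutions covering a 10,000-fold range. After 72 h at 37 °C, 5% CO2, CellTiterGlo 2.0 read cellular ATP. Percent viability came from per-plate normalisation to control wells, and the drug sensitivity score was defined as a weighted area under a four-parameter logistic fit.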

The subject of assay [2] is MDA-MB-453. Nature of the assay: drug sensitivity score (DSS), single agent (DSS (weighted AUC score)); higher = more sensitive (stronger viability decrease); extreme values may be limits of the assay. Particulars: BLU9931 0 nM; 72 h. The gist of the method: as §1

As for `CC(C)C[C@H](NC(=O)[C@H](CCc1ccccc1)NC(=O)CN1CCOCC1)C(=O)N[C@@H](Cc1ccccc1)C(=O)N[C@@H](CC(C)C)C(=O)[C@@]1(C)CO1` [Carfilzomib], the figures for the drug sensitivity score in the assay on MDA-MB-453 [1] and with MDA-MB-453 [2] were 22.9 and 24.5, respectively.

Take `CCCCCCCCc1ccc(CCC(N)(CO)CO)cc1` [Fingolimod]: the drug sensitivity score in the assay on MDA-MB-453 [1] is 7.7; in the assay with MDA-MB-453 [2] it was 8.7.

Regarding `CCC(C)(C)C(=O)O[C@H]1C[C@@H](C)C=C2C=C[C@H](C)[C@H](CC[C@@H]3C[C@@H](O)CC(=O)O3)[C@H]21` [Simvastatin], the drug sensitivity score in the assay on MDA-MB-453 [1] amounted to 0.1; in the assay with MDA-MB-453 [2], 0.

On to `O=C1CCC(N2C(=O)c3ccccc3C2=O)C(=O)N1` (stereo not given) [Thalidomide], for which the drug sensitivity score worked out at 1 with MDA-MB-453 [1] and 0 with MDA-MB-453 [2].

As to `Cc1cc(F)c(C(=O)Nc2cccc(-c3nncn3C(C)C)n2)cc1-n1cnc(C2CC2)c1` [Selonsertib], the drug sensitivity score in the assay on MDA-MB-453 [1] and in the assay with MDA-MB-453 [2] was 0 in each case.

With `NC(=O)NO` [Hydroxyurea], the drug sensitivity score in the assay with MDA-MB-453 [1] turned out to be 1.6; in the assay with MDA-MB-453 [2], 2.3.

For the compound `Nc1cccc2c1C(=O)N(C1CCC(=O)NC1=O)C2=O` (stereo not given) [Pomalidomide], the drug sensitivity score in the assay with MDA-MB-453 [1] and in the assay on MDA-MB-453 [2] was 0 each time.

Take `C[C@@H]1COC(Nc2ccc3ncnc(Nc4ccc(OCc5nccs5)c(Cl)c4)c3c2)=N1` [Varlitinib]: the drug sensitivity score was determined as 9.1 in the assay with MDA-MB-453 [1] and 6.3 with MDA-MB-453 [2].

On to `CN(C)C(=N)NC(=N)N` [Metformin], for which the drug sensitivity score with MDA-MB-453 [1] and in the assay on MDA-MB-453 [2] was 0 in each case.

`COCCNCc1ccc(-c2cc3nccc(Oc4ccc(NC(=O)C5(C(=O)Nc6ccc(F)cc6)CC5)cc4F)c3s2)nc1` [Sitravatinib]: the drug sensitivity score in the assay with MDA-MB-453 [1] came to 0; with MDA-MB-453 [2] it was 0.6.

With `COC(=O)c1ccc([C@H]2c3[nH]c4ccccc4c3C[C@H](C(=O)OC)N2C(=O)CCl)cc1` [RSL3], the drug sensitivity score amounted to 0.8 with MDA-MB-453 [1] and 0.6 in the assay with MDA-MB-453 [2].

Take `Cc1nc(Nc2ncc(C(=O)Nc3c(C)cccc3Cl)s2)cc(N2CCN(CCO)CC2)n1` [Dasatinib]: the drug sensitivity score in the assay on MDA-MB-453 [1] and in the assay on MDA-MB-453 [2] was 0 each time.

As to `Cn1nnc2c(C(N)=O)ncn2c1=O` [Temozolomide], the drug sensitivity score in the assay on MDA-MB-453 [1] and with MDA-MB-453 [2] was 0 throughout.

In the case of `CCC/C=C/C=C/C(=O)O[C@H]1/C(=C/C(=O)OC)C[C@H]2C[C@H]([C@@H](C)O)OC(=O)C[C@H](O)C[C@@H]3C[C@H](OC(C)=O)C(C)(C)[C@](O)(C[C@@H]4C/C(=C/C(=O)OC)C[C@H](/C=C/C(C)(C)[C@]1(O)O2)O4)O3` [Bryostatin 1], the results for the drug sensitivity score in the assay on MDA-MB-453 [1] and in the assay on MDA-MB-453 [2] were 2.3 and 7.9, respectively.

Take `C[C@@H](Nc1cc(F)cc(F)c1)c1cc(C(=O)N(C)C)cc2c(=O)cc(N3CCOCC3)oc12` [AZD-8186]: the drug sensitivity score with MDA-MB-453 [1] was 2.3; with MDA-MB-453 [2], 1.7.

For `COc1cc2c(Nc3ccc(Cl)c(Cl)c3F)ncnc2cc1OC[C@@H]1C[C@@H]2CN(C)C[C@@H]2C1` [Tesevatinib], the drug sensitivity score with MDA-MB-453 [1] worked out at 11.5; with MDA-MB-453 [2], 7.6.

For the compound `CN1CC[C@H](c2c(O)cc(O)c3c(=O)cc(-c4ccccc4Cl)oc23)[C@H](O)C1` [Alvocidib], the drug sensitivity score in the assay on MDA-MB-453 [1] was 16.2; in the assay with MDA-MB-453 [2], 14.5.

With `CC1(C)CC[C@]2(NC(=O)C(C)(F)F)CC[C@]3(C)[C@H](C(=O)C=C4[C@@]5(C)C=C(C#N)C(=O)C(C)(C)[C@@H]5CC[C@]43C)[C@@H]2C1` [Omaveloxolone], the values for the drug sensitivity score with MDA-MB-453 [1] and in the assay on MDA-MB-453 [2] were 13.5 and 14.3, respectively.

For the compound `CC[C@]1(O)C[C@@H]2CN(CCc3c([nH]c4ccccc34)[C@@](C(=O)OC)(c3cc4c(cc3OC)N(C)[C@H]3[C@@](O)(C(=O)OC)[C@H](OC(C)=O)[C@]5(CC)C=CCN6CC[C@]43[C@@H]65)C2)C1` [Vinblastine], the drug sensitivity score with MDA-MB-453 [1] amounted to 8.4; in the assay on MDA-MB-453 [2], 10.

With `COc1cc(N2CCN(C)CC2)ccc1Nc1nccc(-c2cn(C)c3cnccc23)n1` [AZ191], the drug sensitivity score was 1.2 with MDA-MB-453 [1] and 1.3 in the assay with MDA-MB-453 [2].

Take `CC1(COc2ccc3c(c2)ncn3-c2ccc3cccc(N4CCC(N)CC4)c3n2)COC1` [Crenolanib]: the drug sensitivity score with MDA-MB-453 [1] stood at 6.5; in the assay on MDA-MB-453 [2], 7.5.

As to `COc1cccc(-c2ccc(NC(=O)C3=C(C(=O)O)CCC3)c(F)c2)c1` [Vidofludimus], the drug sensitivity score with MDA-MB-453 [1] stood at 0; in the assay with MDA-MB-453 [2], 0.4.

Turning to `C[C@@H]1CN(CC(=O)Nc2ccc3c(c2)Cc2cccc(-c4cc(=O)cc(N5CCOCC5)o4)c2S3)C[C@H](C)O1`, the drug sensitivity score with MDA-MB-453 [1] was found to be 3.4; with MDA-MB-453 [2], 3.1.

As to `Cc1cc(Nc2ncc(Cl)c(Nc3ccccc3S(=O)(=O)C(C)C)n2)c(OC(C)C)cc1C1CCNCC1` [Ceritinib], the drug sensitivity score in the assay with MDA-MB-453 [1] turned out to be 1.9; in the assay with MDA-MB-453 [2] it was 1.8.

As for `CC(C)NC(=O)COc1cccc(-c2nc(Nc3ccc4[nH]ncc4c3)c3ccccc3n2)c1` [KD025], the drug sensitivity score in the assay on MDA-MB-453 [1] is 6; in the assay with MDA-MB-453 [2], 5.6.

As for `CC(C)NC[C@@H](C(=O)N1CCN(c2ncnc3c2[C@H](C)C[C@H]3O)CC1)c1ccc(Cl)cc1` [Ipatasertib], the drug sensitivity score in the assay on MDA-MB-453 [1] was determined as 12; in the assay with MDA-MB-453 [2], 11.

Turning to `O=C(NC[C@H](O)CN1CCc2ccccc2C1)c1cc(NC2COC2)ncn1`, the drug sensitivity score with MDA-MB-453 [1] is 4.3; in the assay on MDA-MB-453 [2] it was 3.9.

Take `CCCS(=O)(=O)Nc1ccc(F)c(C(=O)c2c[nH]c3ncc(-c4ccc(Cl)cc4)cc23)c1F` [Vemurafenib]: the drug sensitivity score in the assay on MDA-MB-453 [1] and in the assay with MDA-MB-453 [2] was 0 each time.

Regarding `CCCCNc1ncc(C(=O)NCc2ccc(-n3ccnc3)cc2)c(NC2CCC(O)CC2)n1` (stereo not given) [UNC2881], the drug sensitivity score in the assay on MDA-MB-453 [1] and with MDA-MB-453 [2] was 0 throughout.

In the case of `CC1(C)CNc2cc(NC(=O)c3cccnc3NCc3ccncc3)ccc21` [Motesanib], the drug sensitivity score in the assay with MDA-MB-453 [1] was 0.3; in the assay with MDA-MB-453 [2], 1.

Consider `N#Cc1ccc(C(c2ccc(C#N)cc2)n2cncn2)cc1` [Letrozole], for which the drug sensitivity score with MDA-MB-453 [1] and in the assay on MDA-MB-453 [2] was 0 each time.

Regarding `CCCOc1ccn2c(C(C)=O)cc(-c3ccccc3S(C)(=O)=O)c2c1` [GSK2801], the drug sensitivity score in the assay on MDA-MB-453 [1] and in the assay with MDA-MB-453 [2] was 0 in each case.

Regarding `CN(C)C[C@@H]1CCn2cc(c3ccccc32)C2=C(C(=O)NC2=O)c2cn(c3ccccc23)CCO1` [Ruboxistaurin], the drug sensitivity score in the assay with MDA-MB-453 [1] was found to be 6.7; in the assay with MDA-MB-453 [2], 5.3.

On to `FC(F)(F)c1ccc(CNc2ccc(Cc3c[nH]c4ncc(Cl)cc34)cn2)cn1` [Pexidartinib], for which the drug sensitivity score in the assay on MDA-MB-453 [1] came to 0.1; in the assay on MDA-MB-453 [2], 1.2.

On to `CCOCc1nc2c(N)nc3ccccc3c2n1CC(C)(C)O` [Resiquimod], for which the drug sensitivity score with MDA-MB-453 [1] stood at 0; in the assay with MDA-MB-453 [2], 0.9.
